# Measurements from ChEMBL document CHEMBL1201862, “PubChem BioAssay data set” (2004).
#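 In this assay, cells in 96-well plates receive the compound at five concentrations for 48 hours. Endpoints are linearly interpolated between the surrounding concentrations. GI50 = concentration required for 50% inhibition of growth.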 The source made the active and inactive calls. Rule as the data show it: active = GI50 up to about 1.1 µM and inactive = higher.
# Assays:
# Test in all cases: NCI anticancer screen, dose series, 48 h
# DMS-114 = system: DMS-114
# HCT-116 = system: HCT-116
# OVCAR-5 = system: OVCAR-5
# COLO 205 = system: COLO 205
# SW-620 = system: SW-620
# NCI-H23 = system: NCI-H23
# DLD-1 = system: DLD-1
# IGROV-1 = system: IGROV-1
# ACHN = system: ACHN
# HCT-15 = system: HCT-15
# K562 = system: K562
# EKVX = system: EKVX
# KM12 = system: KM12
# OVCAR-4 = system: OVCAR-4
# SNB-78 = system: SNB-78
# TK-10 = system: TK-10
# SK-OV-3 = system: SK-OV-3
# M19-MEL = system: M19-MEL
# 786-0 = system: 786-0
# SN12C = system: SN12C
# XF498 = system: XF498
# UACC-257 = system: UACC-257
# SNB-19 = system: SNB-19
# DMS-273 = system: DMS-273
# UACC-62 = system: UACC-62
# SK-MEL-5 = system: SK-MEL-5
# RXF 631 = system: RXF 631
# MOLT-4 = system: MOLT-4
# CCRF-CEM = system: CCRF-CEM
# KM-20L2 = system: KM-20L2
# SF-268 = system: SF-268
# NCI-H226 = system: NCI-H226
# SK-MEL-2 = system: SK-MEL-2
# HOP-92 = system: HOP-92
# CAKI-1 = system: CAKI-1
# HL-60 = system: HL-60
# NCI-H460 = system: NCI-H460
# UO-31 = system: UO-31
# RXF 393 = system: RXF 393
# NCI-H522 = system: NCI-H522
# U-251 = system: U-251
# OVCAR-3 = system: OVCAR-3
# M14 = system: M14
# RPMI-8226 = system: RPMI-8226
# A549 = system: A549
# SF-539 = system: SF-539
# HCC 2998 = system: HCC 2998
# A498 = system: A498
# HT-29 = system: HT-29
# SNB-75 = system: SNB-75
# OVCAR-8 = system: OVCAR-8
# HOP-18 = system: HOP-18
# SF-295 = system: SF-295
# LOX IMVI = system: LOX IMVI
# HOP-62 = system: HOP-62
# SR = system: SR
# SK-MEL-28 = system: SK-MEL-28
# Malme-3M = system: Malme-3M
# LXFL 529 = system: LXFL 529
smiles,measurement,setting,value
c1ccc2c(c1)cc(C1NCCc3nc[nH]c31)c1ccccc12 (stereo not given),GI50,DMS-114,> 47.2 µM (inactive)
same,GI50,HCT-116,21.1 µM (inactive)
same,GI50,OVCAR-5,> 74.3 µM (inactive)
same,GI50,COLO 205,13.5 µM (inactive)
same,GI50,SW-620,25.5 µM (inactive)
same,GI50,NCI-H23,> 100 µM (inactive)
same,GI50,DLD-1,63.8 µM (inactive)
same,GI50,IGROV-1,> 54.6 µM (inactive)
same,GI50,ACHN,23.2 µM (inactive)
same,GI50,HCT-15,59.6 µM
same,GI50,K562,15.2 µM (inactive)
same,GI50,EKVX,> 100 µM (inactive)
same,GI50,KM12,47.6 µM (inactive)
same,GI50,OVCAR-4,37.2 µM (inactive)
same,GI50,SNB-78,> 86.5 µM (inactive)
same,GI50,TK-10,> 100 µM (inactive)
same,GI50,SK-OV-3,> 100 µM (inactive)
same,GI50,M19-MEL,29.6 µM (inactive)
same,GI50,786-0,32.1 µM (inactive)
same,GI50,SN12C,56 µM (inactive)
same,GI50,XF498,22.5 µM (inactive)
same,GI50,UACC-257,31 µM (inactive)
same,GI50,SNB-19,> 100 µM (inactive)
same,GI50,DMS-273,29.7 µM (inactive)
same,GI50,UACC-62,22.6 µM (inactive)
same,GI50,SK-MEL-5,> 48 µM (inactive)
same,GI50,RXF 631,50.8 µM (inactive)
same,GI50,MOLT-4,21 µM (inactive)
same,GI50,CCRF-CEM,27.2 µM (inactive)
same,GI50,KM-20L2,56.5 µM (inactive)
same,GI50,SF-268,77.1 µM (inactive)
same,GI50,NCI-H226,27.7 µM (inactive)
same,GI50,SK-MEL-2,18.4 µM (inactive)
same,GI50,HOP-92,> 44.4 µM (inactive)
same,GI50,CAKI-1,48.8 µM (inactive)
same,GI50,HL-60,41.6 µM (inactive)
same,GI50,NCI-H460,22.6 µM (inactive)
same,GI50,UO-31,33.7 µM (inactive)
same,GI50,RXF 393,31.7 µM (inactive)
same,GI50,NCI-H522,27.7 µM (inactive)
same,GI50,U-251,39.1 µM (inactive)
same,GI50,OVCAR-3,> 61.9 µM (inactive)
same,GI50,M14,18.5 µM (inactive)
same,GI50,RPMI-8226,37.6 µM (inactive)
same,GI50,A549,54.5 µM (inactive)
same,GI50,SF-539,> 45.2 µM (inactive)
same,GI50,HCC 2998,15.7 µM (inactive)
same,GI50,A498,22.5 µM (inactive)
same,GI50,HT-29,44.4 µM (inactive)
same,GI50,SNB-75,32.7 µM (inactive)
same,GI50,OVCAR-8,> 68.9 µM (inactive)
same,GI50,HOP-18,> 62.1 µM (inactive)
same,GI50,SF-295,56.2 µM (inactive)
same,GI50,LOX IMVI,19.8 µM (inactive)
same,GI50,HOP-62,32.4 µM (inactive)
same,GI50,SR,34.3 µM (inactive)
same,GI50,SK-MEL-28,> 47.6 µM (inactive)
same,GI50,Malme-3M,30.6 µM (inactive)
same,GI50,LXFL 529,41.3 µM (inactive)
CN(C)CCN(C)C(=O)c1cccc2cccc(C(=O)O)c12,GI50,DMS-114,> 100 µM (inactive)
same,GI50,HCT-116,> 100 µM (inactive)
same,GI50,OVCAR-5,> 100 µM (inactive)
same,GI50,COLO 205,> 100 µM (inactive)
same,GI50,SW-620,> 100 µM (inactive)
same,GI50,NCI-H23,> 100 µM (inactive)
same,GI50,DLD-1,> 100 µM (inactive)
same,GI50,IGROV-1,> 100 µM (inactive)
same,GI50,ACHN,> 100 µM (inactive)
same,GI50,HCT-15,> 100 µM
same,GI50,K562,> 100 µM (inactive)
same,GI50,EKVX,> 100 µM (inactive)
same,GI50,OVCAR-4,> 100 µM (inactive)
same,GI50,SNB-78,> 100 µM (inactive)
same,GI50,TK-10,> 100 µM (inactive)
same,GI50,SK-OV-3,> 100 µM (inactive)
same,GI50,M19-MEL,> 100 µM (inactive)
same,GI50,786-0,> 100 µM (inactive)
same,GI50,SN12C,> 100 µM (inactive)
same,GI50,XF498,> 100 µM (inactive)
same,GI50,UACC-257,> 100 µM (inactive)
same,GI50,SNB-19,> 100 µM (inactive)
same,GI50,DMS-273,> 100 µM (inactive)
same,GI50,UACC-62,> 100 µM (inactive)
same,GI50,SK-MEL-5,> 100 µM (inactive)
same,GI50,RXF 631,> 100 µM (inactive)
same,GI50,MOLT-4,> 100 µM (inactive)
same,GI50,CCRF-CEM,> 100 µM (inactive)
same,GI50,KM-20L2,> 100 µM (inactive)
same,GI50,SF-268,> 100 µM (inactive)
same,GI50,NCI-H226,> 100 µM (inactive)
same,GI50,SK-MEL-2,0.723 µM (active)
same,GI50,HOP-92,> 100 µM (inactive)
same,GI50,HL-60,> 100 µM (inactive)
same,GI50,NCI-H460,> 100 µM (inactive)
same,GI50,UO-31,> 100 µM (inactive)
same,GI50,RXF 393,> 100 µM (inactive)
same,GI50,U-251,> 100 µM (inactive)
same,GI50,OVCAR-3,> 100 µM (inactive)
same,GI50,M14,> 100 µM (inactive)
same,GI50,RPMI-8226,> 100 µM (inactive)
same,GI50,A549,> 100 µM (inactive)
same,GI50,SF-539,> 100 µM (inactive)
same,GI50,HCC 2998,> 100 µM (inactive)
same,GI50,A498,> 100 µM (inactive)
same,GI50,HT-29,> 100 µM (inactive)
same,GI50,SNB-75,> 100 µM (inactive)
same,GI50,OVCAR-8,> 100 µM (inactive)
same,GI50,HOP-18,> 100 µM (inactive)
same,GI50,SF-295,> 100 µM (inactive)
same,GI50,LOX IMVI,> 100 µM (inactive)
same,GI50,HOP-62,> 100 µM (inactive)
same,GI50,SR,> 100 µM (inactive)
same,GI50,SK-MEL-28,> 100 µM (inactive)
same,GI50,Malme-3M,> 100 µM (inactive)
same,GI50,LXFL 529,> 100 µM (inactive)
